Assay results taken from patent US7057048B2, “Androgen receptor antagonists” (Warner Lambert Company LLC, priority 2003, dated 2006).

Molecular target: T1, androgen receptor (Homo sapiens, UniProt P10275)
T1 sequence (P10275 1-920 Q868H): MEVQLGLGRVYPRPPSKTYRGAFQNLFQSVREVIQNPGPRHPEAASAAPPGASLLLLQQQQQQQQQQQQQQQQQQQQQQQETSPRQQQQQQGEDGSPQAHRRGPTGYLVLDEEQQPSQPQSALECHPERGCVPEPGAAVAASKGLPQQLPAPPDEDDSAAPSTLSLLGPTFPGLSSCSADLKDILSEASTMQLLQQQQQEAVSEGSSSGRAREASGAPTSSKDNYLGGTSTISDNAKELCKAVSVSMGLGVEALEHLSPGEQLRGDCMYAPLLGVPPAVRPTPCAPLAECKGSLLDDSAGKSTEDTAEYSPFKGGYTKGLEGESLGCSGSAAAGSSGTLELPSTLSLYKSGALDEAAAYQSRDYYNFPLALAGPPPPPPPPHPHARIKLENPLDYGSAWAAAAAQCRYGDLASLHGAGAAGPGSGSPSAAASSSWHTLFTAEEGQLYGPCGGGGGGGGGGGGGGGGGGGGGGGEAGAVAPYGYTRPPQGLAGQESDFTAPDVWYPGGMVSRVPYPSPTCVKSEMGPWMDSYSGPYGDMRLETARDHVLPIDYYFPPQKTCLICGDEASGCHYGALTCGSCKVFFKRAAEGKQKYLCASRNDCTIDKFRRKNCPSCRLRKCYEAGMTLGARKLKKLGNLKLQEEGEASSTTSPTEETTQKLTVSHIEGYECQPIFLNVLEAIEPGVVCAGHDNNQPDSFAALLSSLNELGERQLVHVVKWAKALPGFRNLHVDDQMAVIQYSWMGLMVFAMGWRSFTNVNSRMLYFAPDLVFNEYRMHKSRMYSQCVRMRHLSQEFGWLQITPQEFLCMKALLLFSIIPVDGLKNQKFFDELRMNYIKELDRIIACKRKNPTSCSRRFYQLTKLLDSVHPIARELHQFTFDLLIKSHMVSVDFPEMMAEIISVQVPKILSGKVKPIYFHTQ
Assay: AR Antagonist Cell Assay (MMTV-luciferase reporter, DHT-stimulated)
Assay type: cell-based
Conditions: MDA-MB453-MMTV clone 54-19 cells, inhibition of induction by 100 pM DHT, 17 hr
Protocol: The compounds ability to antagonize the effects of androgen on the androgen receptor were determined in the protocol described immediately below.
Experimental Procedure for AR Antagonist Cell Assay
Cell line: MDA-MB453-MMTV clone 54-19. This cell line is a stable transfected cell line with MDA-MB453 cell background (human breast tumor cell expressing high level of androgen receptor). A MMTV minimal promoter containing ARE was first cloned in front of a firefly luciferase reporter gene. Then the cascade was cloned into transfection vector pUV120puro. Electroporation method was used for transfecting MDA-MB-453 cell. Puromycin resistant stable cell line was selected.
Cell Culture Media and Reagents:
Culture medium: DMEM (high glucose, Gibco cat #: 11960-044), 10% FBS, and 1% L-glutamine
Plating medium: DMEM (phenol red free), 10% charcoal treated HyClone serum, 1% L-glutamine
Assay medium: DMEM (phenol red free), 1% charcoal treated HyClone serum, 1% L-glutamine, and 1% penicillin/streptomycin
3×luciferase buffer: 2% beta-mercaptoethanol, 0.6% ATP, 0.0135% luciferine in cell lysis buffer
• 1. Cells are maintained in culture medium, splitting cells when they reach 80–90% confluence • 2. To test compounds, 10,000 cells/well are plated to opaque 96 cell culture plate in 100 ul/well plating medium, culture for overnight at 37° C. in cell culture incubator • 3. Carefully remove plating medium, then add 80 ul/well of pre-warmed assay medium, add 10 ul/well testing compound (final concentration at 10 uM or 1 uM), incubate at 37° C. for 30 minutes • 4. Add 10 ul/well freshly prepared DHT (final concentration at 100 pM) to each well, incubate at 37° C. for 17 hr (overnight) • 5. Add 50 ul/well 3×luciferase buffer, incubate at room temperature for 5 minutes, then count on Luminometer
The fold induction over background by 100 pM DHT in the absence of testing compounds is standardized as 100% and experimental result is expressed as percentage of inhibition by testing compounds.

| IC50 [µM] | Compound |
| --- | --- |
| > 10 | O=c1cc(C(F)(F)F)c2cc(Cc3ccc(S(=O)(=O)N4CCCC(O)C4)cc3)ccc2o1 (stereo not shown) [Example 27, 6-[4-(3-Hydroxypiperidine-1-sulfonyl)benzyl]-4-trifluoromethylchromen-2-one] |
| 6.5 | CC1CN(S(=O)(=O)c2ccc(Cc3ccc4[nH]c(=O)cc(C(F)(F)F)c4c3)cc2)CC(C)O1 (stereo not shown) [Example 24, 6-[4-(2,6-Dimethylmorpholine-4-sulfonyl)benzyl]-4-trifluoromethyl-1H-quinolin-2-one] |
| 8.2 | O=c1cc(C(F)(F)F)c2cc(Cc3ccc(S(=O)(=O)N4CCN(CCCO)CC4)cc3)ccc2o1 [Example 31, 6-{4-[4-(3-Hydroxypropyl)piperazine-1-sulfonyl]benzyl}-4-trifluoromethylchromen-2-one] |
| > 10 | O=c1cc(C(F)(F)F)c2cc(Cc3ccc(S(=O)(=O)N4CCC5(CC4)OCCO5)cc3)ccc2[nH]1 [Example 6, 6-[4-(1,4-Dioxa-8-azaspiro[4.5]decane-8-sulfonyl)benzyl]-4-trifluoromethyl-1H-quinolin-2-one] |
| 9.3 | COc1ccc(N2CCN(S(=O)(=O)c3ccc(Cc4ccc5oc(=O)cc(C(F)(F)F)c5c4)cc3)CC2C)cc1 (stereo not shown) [Example 32, 6-{4-[4-(4-Methoxyphenyl)-3-methylpiperazine-1-sulfonyl]benzyl}-4-trifluoromethylchromen-2-one] |
| 1.2 | COc1cc2c(cc1OC)CN(S(=O)(=O)c1ccc(Cc3ccc4oc(=O)cc(C(F)(F)F)c4c3)cc1)CC2 [Example 35, 6-[4-(6,7-Dimethoxy-3,4-dihydro-1H-isoquinoline-2-sulfonyl)benzyl]-4-trifluoromethylchromen-2-one] |
| 9.8 | CC1CCCCN1S(=O)(=O)c1ccc(Cc2ccc3oc(=O)cc(C(F)(F)F)c3c2)cc1 (stereo not shown) [Example 58, 6-[4-(2-Methylpiperidine-1-sulfonyl)benzyl]-4-trifluoromethylchromen-2-one] |
| > 10 | O=C(CN1CCN(S(=O)(=O)c2ccc(Cc3ccc4oc(=O)cc(C(F)(F)F)c4c3)cc2)CC1)N1CCCC1 [Example 47, 6-{4-[4-(2-Oxo-2-pyrrolidin-1-ylethyl)piperazine-1-sulfonyl]benzyl}-4-trifluoromethylchromen-2-one] |
| 5.9 | O=c1cc(C(F)(F)F)c2cc(Cc3ccc(S(=O)(=O)N4CCCc5ccccc54)cc3)ccc2o1 [Example 65, 6-[4-(3,4-Dihydro-2H-sulfonyl)benzyl]-4-trifluoromethylchromen-2-one] |
| 9.2 | O=c1cc(C(F)(F)F)c2cc(Cc3ccc(S(=O)(=O)N4CCCCCC4)cc3)ccc2[nH]1 [Example 21, 6-[4-(Azepane-1-sulfonyl)benzyl]-4-trifluoromethyl-1H-quinolin-2-one] |
| 3.4 | O=c1cc(C(F)(F)F)c2cc(Cc3ccc(S(=O)(=O)N4CCCC4CO)cc3)ccc2o1 (stereo not shown) [Example 52, 6-[4-(2-Hydroxymethyl-pyrrolidine-1-sulfonyl)benzyl]-4-trifluoromethylchromen-2-one] |
| > 10 | O=c1cc(C(F)(F)F)c2cc(Cc3ccc(S(=O)(=O)N4CCC(O)CC4)cc3)ccc2o1 [Example 56, 6-[4-(4-Hydroxypiperidine-1-sulfonyl)benzyl]-4-trifluoromethylchromen-2-one] |
| > 10 | O=c1cc(C(F)(F)F)c2cc(Cc3ccc(S(=O)(=O)N4CCCCC4CCO)cc3)ccc2[nH]1 (stereo not shown) [Example 17, 6-{4-[2-(2-Hydroxyethyl)piperidine-1-sulfonyl]benzyl}-4-trifluoromethyl-1H-quinolin-2-one] |
| 7.2 | O=c1cc(C(F)(F)F)c2cc(Cc3ccc(S(=O)(=O)N4CCC5(CC4)OCCO5)cc3)ccc2o1 [Example 36, 6-[4-(1,4-Dioxa-8-azaspiro[4.5]decane-8-sulfonyl)benzyl]-4-trifluoromethylchromen-2-one] |
| 9.8 | O=c1cc(C(F)(F)F)c2cc(Cc3ccc(S(=O)(=O)N4CCCCC4CO)cc3)ccc2[nH]1 (stereo not shown) [Example 7, 6-[4-(2-Hydroxymethylpiperidine-1-sulfonyl)benzyl]-4-trifluoromethyl-1H-quinolin-2-one] |
| > 10 | O=C(CN1CCN(S(=O)(=O)c2ccc(Cc3ccc4[nH]c(=O)cc(C(F)(F)F)c4c3)cc2)CC1)N1CCCC1 [Example 13, 6-{4-[4-(2-Oxo-2-pyrrolidin-1-ylethyl)piperazine-1-sulfonyl]benzyl}-4-trifluoromethyl-1H-quinolin-2-one] |
| 0.52 | CC1CN(S(=O)(=O)c2ccc(Cc3ccc4oc(=O)cc(C(F)(F)F)c4c3)cc2)CC(C)O1 (stereo not shown) [Example 60, 6-[4-(2,6-Dimethylmorpholine-4-sulfonyl)benzyl]-4-trifluoromethylchromen-2-one] |
| 4.7 | O=c1cc(C(F)(F)F)c2cc(Cc3ccc(S(=O)(=O)N4CCCCC4c4cccnc4)cc3)ccc2[nH]1 (stereo not shown) [Example 14, 6-[4-(3,4,5,6-Tetrahydro-2H-[2,3′]bipyridinyl-1-sulfonyl)benzyl]-4-trifluoromethyl-1H-quinolin-2-one] |
| 6.8 | O=c1cc(C(F)(F)F)c2cc(Cc3ccc(S(=O)(=O)N4CCc5ccccc5C4)cc3)ccc2[nH]1 [Example 2, 6-[4-(3,4-Dihydro-1H-isoquinoline-2-sulfonyl)benzyl]-4-trifluoromethyl-1H-quinolin-2-one] |
| > 10 | O=c1cc(C(F)(F)F)c2cc(Cc3ccc(S(=O)(=O)N4CCC(N5CCCC5)CC4)cc3)ccc2o1 [Example 30, 6-[4-(4-Pyrrolidin-1-ylpiperidine-1-sulfonyl)benzyl]-4-trifluoromethylchromen-2-one] |
| 4.2 | O=c1cc(C(F)(F)F)c2cc(Cc3ccc(S(=O)(=O)N4CCCC5CCCCC54)cc3)ccc2o1 (stereo not shown) [Example 53, 6-[4-(Octahydroquinoline-1-sulfonyl)benzyl]-4-trifluoromethylchromen-2-one] |
| 6.8 | O=c1cc(C(F)(F)F)c2cc(Cc3ccc(S(=O)(=O)N4CCCCCC4)cc3)ccc2o1 [Example 57, 6-[4-(Azepane-1-sulfonyl)benzyl]-4-trifluoromethylchromen-2-one] |
| > 10 | O=c1cc(C(F)(F)F)c2cc(Cc3ccc(S(=O)(=O)N4CCCCC4)cc3)ccc2[nH]1 [Example 23, 6-[4-(Piperidine-1-sulfonyl)benzyl]-4-trifluoromethyl-1H-quinolin-2-one] |
| > 10 | O=c1cc(C(F)(F)F)c2cc(Cc3ccc(S(=O)(=O)N4CCSC4)cc3)ccc2o1 [Example 46, 6-[4-(Thiazolidine-3-sulfonyl)benzyl]-4-trifluoromethylchromen-2-one] |
| 5.4 | COC(=O)[C@@H]1CCCN1S(=O)(=O)c1ccc(Cc2ccc3[nH]c(=O)cc(C(F)(F)F)c3c2)cc1 [Example 9, 1-[4-(2-Oxo-4-trifluoromethyl-1,2-dihydroquinolin-6-ylmethyl)benzenesulfonyl]-pyrrolidine-2-carboxylicacid methyl ester] |
| > 10 | O=c1cc(C(F)(F)F)c2cc(Cc3ccc(S(=O)(=O)N4CCN(CCOCCO)CC4)cc3)ccc2o1 [Example 42, 6-(4-{4-[2-(2-Hydroxyethoxy)ethyl]-piperazine-1-sulfonyl}benzyl)-4-trifluoromethylchromen-2-one] |
| > 10 | CCOC(=O)N1CCN(S(=O)(=O)c2ccc(Cc3ccc4oc(=O)cc(C(F)(F)F)c4c3)cc2)CC1 [Example 29, 4-[4-(2-Oxo-4-trifluoromethyl-2H-chromen-6-ylmethyl)-benzenesulfonyl]piperazine-1-carboxylic acid ethylester] |

| Compound | IC50 [µM] |
| --- | --- |
| CC1CCCCN1S(=O)(=O)c1ccc(Cc2ccc3[nH]c(=O)cc(C(F)(F)F)c3c2)cc1 (stereo not shown) [Example 22, 6-[4-(2-Methylpiperidine-1-sulfonyl)benzyl]-4-trifluoromethyl-1H-quinolin-2-one] | > 10 |
